Experimental data reported in the OligoGym collection.
Several values for one entry are separate records, joined by “and”; a condition that tells them apart may be missing. Equal values may be shown once. After the bases stand the sugars from the 5' end (letter, count) and the backbone: PS all phosphorothioate, else s phosphorothioate and o phosphodiester by linkage. Methylation of C is not given here. e = 2'-O-(2-methoxyethyl) (MOE); d = 2'-deoxy (DNA)

Target: DGAT2
Conditions: ASO

Sequence	target mRNA inhibition (HepG2, 0.12 µM)	target mRNA inhibition (HepG2, 2.5 µM)	target mRNA inhibition (HepG2, 10 µM)	further results
CAGGTAAGGCCGTATGCCTG (sugars e5 d10 e5, PS)	63%			
ATTGCCACTCCCATTCTTTG (sugars e5 d10 e5, PS)	35%			
AGGACAGAGGTTCAACATCC (sugars e5 d10 e5, PS)	53%			
AGTTTCCTTTGAAATCCAAT (sugars e5 d10 e5, PS)		65%	88%	
CAGGTACTCCCTCAACACAG (sugars e5 d10 e5, PS)	52%			
GTGACCTTGGGATAGTCCCT (sugars e5 d10 e5, PS)		76% and 69%	92% and 89%	
TGTCCTTATCAAAATCCCTC (sugars e5 d10 e5, PS)	38%			
TAAGCCTCGGTGTCCTCTCC (sugars e5 d10 e5, PS)		90%	73%	
GCCCAGTTTCGGACCCACTG (sugars e3 d14 e3, PS)	81%			
ACCTCACCTCCATACTGGCA (sugars e5 d10 e5, PS)		65%	86%	
CTCTCCAACTCCTCCCCTTG (sugars e5 d10 e5, PS)	25%			
CGACAGCGCAGGTCCTCCGT (sugars e5 d10 e5, PS)	48%			
AGGCTCTGGTTCCATGCTCT (sugars e5 d10 e5, PS)		61%	79%	
CAGGTCCTCCGTGAGAGCGC (sugars e5 d10 e5, PS)	29%			
TCGGAGGAGAAGAGGCCTCG (sugars e5 d10 e5, PS)	60%			
TCAGCCACCCAAGAAAAACC (sugars e5 d10 e5, PS)	0%			
ACCCCCTCAGGAAGGCACAG (sugars e5 d10 e5, PS)	25%			
GCCTCCATGTACATGGTGTG (sugars e5 d10 e5, PS)	63%			
GGTTGTGTGTCTTCACCAGC (sugars e2 d13 e5, PS)	68%			
TGTGATGACTTCCCAGGGTC (sugars e5 d10 e5, PS)		85%	76%	
AGCTGGATGGGAAAGTAGTC (sugars e5 d10 e5, PS)	31%			
GCCCAATATCTGATATCAAA (sugars e5 d10 e5, PS)		80% and 69%	89% and 84%	
GCTTACCAACAGTGGTGATG (sugars e5 d10 e5, PS)	21%			
GCTTCTTGGGCATCTGCTAG (sugars e5 d10 e5, PS)		74%	82%	

Sequence	target mRNA inhibition (HepG2, 0.12 µM)	target mRNA inhibition (HepG2, 2.5 µM)	target mRNA inhibition (HepG2, 10 µM)	further results
TGCTTATCCTTGAGGGTCTC (sugars e5 d10 e5, PS)		64%	84%	
TCCCCAATATCATACTATCT (sugars e5 d10 e5, PS)		50%	88%	
TGACCTGTAGCTGCTTTTCC (sugars e5 d10 e5, PS)	35%			
AGAGGATGCTGGATCCAGTG (sugars e5 d10 e5, PS)	45%			
GCATTTTAACAAGATCCCCA (sugars e5 d10 e5, PS)	34%			
GGGTGTGTTCCAGTCAAACA (sugars e5 d10 e5, PS)	6%			
GGCTGTCAGAGGCTACTGGC (sugars e5 d10 e5, PS)		74%	63%	
GAGGCTCAGGCCTTGACAAC (sugars e5 d10 e5, PS)	12%			
TTGTGTGTCTTCACCAGCTG (sugars e3 d14 e3, PS)	60%			
AGTAAGGGTATTCTGCTCAT (sugars e5 d10 e5, PS)		87%	77%	
CACTTCTGTGGCCTCTGTGC (sugars e5 d10 e5, PS)	38%			
CACCAGCCAAGTGAAGTAGA (sugars e5 d10 e5, PS)	23%			
TCCTGGTGGTCAGCAGGTTG (sugars e5 d10 e5, PS)	58%			
ACTGAGATCTCCAGCAGCAA (sugars e5 d10 e5, PS)		50% and 61% and 56%	90% and 93% and 92%	
ACTATCACACCACCTCCCAC (sugars e5 d10 e5, PS)		2%	62%	
AACAGGGTACAACTCTCTTG (sugars e5 d10 e5, PS)		61%	92%	
GAGGAGTTCTCGAATATCCC (sugars e5 d10 e5, PS)		43%	80%	
AGCACTGAGATGACCTGTAG (sugars e5 d10 e5, PS)	36%			
ACACACAATATCCATGGACT (sugars e5 d10 e5, PS)		68%	95%	
AAACCCTCGACTGAGTGTGA (sugars e5 d10 e5, PS)	37%			
GTGGCTCTCTAGATAGGGTG (sugars e5 d10 e5, PS)		68%	84%	
GACTGCATTCTTGCCAGGCA (sugars e5 d10 e5, PS)	60%			
GGCAGGGCTTAGAATGGCTA (sugars e5 d10 e5, PS)	48%			
CAGTGCCCCATCTCCCAGAC (sugars e5 d10 e5, PS)	0%			

Sequence	target mRNA inhibition (HepG2, 0.12 µM)	target mRNA inhibition (HepG2, 2.5 µM)	target mRNA inhibition (HepG2, 10 µM)	further results
GCCACCCCCATCCTCATCCT (sugars e5 d10 e5, PS)	0%			
TCACTTGCTTGAGGTCAGGG (sugars e5 d10 e5, PS)		71% and 79%	80% and 89%	
TTTGGAACTAATCTGCTGCT (sugars e5 d10 e5, PS)	50%			
CAAATCTGTGTGACCTTGGG (sugars e5 d10 e5, PS)		65%	93%	
TTGTGTGTCTTCACCAGCTG (sugars e5 d10 e5, PS)	63% and 73%			
GTGTAGCCAGGTAAGGCCGT (sugars e5 d10 e5, PS)	50%			
GGACACCTGGAGCTGCGGCC (sugars e5 d10 e5, PS)		35%	73%	
CCTGGACAAGTCCTGCCCAT (sugars e5 d10 e5, PS)	73%			
GGTATCCAAAGATATAGTTC (sugars e5 d10 e5, PS)	43%			
GGCCAAGGCTGAGTCTGTGC (sugars e5 d10 e5, PS)	17%			
ACCAGCTGGATGGGAAAGTA (sugars e5 d10 e5, PS)	21%			
TGGTTGCAATGTTGCCATCA (sugars e5 d10 e5, PS)		94% and 78%	94% and 93%	
GACCCACTGGAGCACTGAGA (sugars e2 d13 e5, PS)	70%			
AGCCAGGTAAGGCCGTATGC (sugars e3 d14 e3, PS)	51%			
CAGGGTGACTTTGCCCCATT (sugars e5 d10 e5, PS)	43%			
GTTGTGTGTCTTCACCAGCT (sugars e2 d13 e5, PS)	65%			
AAATCCATGTCAGAGAGGCT (sugars e5 d10 e5, PS)		64%	92%	
CTCCTCCCCTTGGCAGAGAA (sugars e5 d10 e5, PS)	43%			
TGATCTCATCAAGAGATAAC (sugars e5 d10 e5, PS)	17%			
AAGAGCTTCACCAGGGCCTC (sugars e5 d10 e5, PS)	44%	10% and 22%	83%	target mRNA inhibition (HepG2, 20 µM): 92%
CACCAGGGCCTCCATGTACA (sugars e3 d14 e3, PS)	41%			
TGCTCAGTTCTTCCAACCAG (sugars e5 d10 e5, PS)		86% and 79%	93% and 94%	
GCACTCTGTGATGCTCTGGA (sugars e5 d10 e5, PS)			90% and 84%	
GGCCCAACCCCCTCAGGAAG (sugars e5 d10 e5, PS)	19%			

Sequence	target mRNA inhibition (HepG2, 0.12 µM)	target mRNA inhibition (HepG2, 2.5 µM)	target mRNA inhibition (HepG2, 10 µM)	further results
GCTATAGAATCAGACAGACC (sugars e5 d10 e5, PS)	46%			
CCAGGTAAGGCCGTATGCCT (sugars e2 d13 e5, PS)	64%			
GGTCTGGGAACAGCAGC (sugars e3 d10 e4, PS)		72% and 76%	79% and 82%	
CATGTCATCAGCCACCCAAG (sugars e5 d10 e5, PS)	16%			
GGTAAGGCCGTATGCCTGGG (sugars e3 d14 e3, PS)	51%			
TGAGTAAGGGTATTCTGCTC (sugars e5 d10 e5, PS)		80% and 72%	93% and 91%	
CAGGACCTCAGGGCTGGCCC (sugars e5 d10 e5, PS)		57% and 50%	71%	
ATCTCAGTCACTGACTCACA (sugars e5 d10 e5, PS)		46%	95%	
CGCAGGGCCAGTTTCACAAA (sugars e5 d10 e5, PS)	31%			
AGCTTGGTGAATAGCTATGT (sugars e5 d10 e5, PS)		75% and 68%	93% and 92%	
GGCTTCACCGTCCCACAGCA (sugars e5 d10 e5, PS)	39%			
AGCTGCTTTTCCACCTTGGA (sugars e2 d16 e2, PS)	45%			
AGCTCAGAGACTCAGCCGCA (sugars e5 d10 e5, PS)		38% and 44% and 55%	78% and 86%	target mRNA inhibition (HepG2, 20 µM): 89% and 97%
GCTTCAATAAATACCTTATC (sugars e5 d10 e5, PS)		84% and 74%	92% and 97%	
TAGTTCCTGGTGGTCAGCAG (sugars e5 d10 e5, PS)	48%			
TGGAGTAGGGCACCAGCCCC (sugars e5 d10 e5, PS)	28%			
GCATTGCCACTCCCATTCTT (sugars e3 d14 e3, PS)	85%			
CCTGTAGCTGCTTTTCCACC (sugars e5 d10 e5, PS)	29%			
CAGGACCCCGGAGTAGGCGG (sugars e5 d10 e5, PS)	75%			
TATAGTTCCTGGTGGTCAGC (sugars e5 d10 e5, PS)	56%			
TTGCCACTCCCATTCTTTGA (sugars e2 d13 e5, PS)	57%			
AGCACTTGATCTGGGACCCA (sugars e5 d10 e5, PS)		65%	94%	
